This assay deals with T1, HIV-1 protease (Human immunodeficiency virus type 1 group M subtype B, UniProt P04585).
T1 construct: made in house; host or cells: E. coli BL21 (dE3)pLysS, pET30a vector
The assay can be described thus: HIV-1 Protease Inhibition Assay. Conditions: fluorogenic substrate assay. Format: biochemical. The text has this:
Assays of the dose-response effect of inhibitor compounds can be described as a curve expressing a degree of inhibition as a function of concentration. The curve theoretically passes through a point at which the concentration is sufficient to reduce activity of the HIV protease enzyme to a level that is 50% that of the difference between minimal and maximal enzyme activity in the assay.
HIV-1 Protease Inhibition Assay
The HIV-1 protease gene was subcloned into the pET30a vector (Novagen) and then transformed into BL21 (dE3)pLysS cells for protein expression. Protein expression and purification were followed according to Tang's procedure (Hong et al., Biochemistry, 1996, 35, 10627-10633). […] The inclusion body containing some bacterial proteins was thoroughly washed by using TRITON X-100, solubilized in […] and passed through the Q-sepharose column to remove the bacterial proteins which interfered with subsequent refolding steps. HIV-1 protease was refolded from the urea to an active form by dialysis. As a final step, gel filtration chromatography was used to remove impurities after refolding. Activities of purified HIV-1 protease were examined using a fluorogenic substrate, 2-aminobenzoyl-Thr-Ile-Nle-Phe(pNO2)-Gln-Arg-NH2 (Novabiochem). […] In the condition of So<<Km, v=Eo(kcat/Km)So, where Eo is the total enzyme concentration, and So is the substrate concentrate. […] Assays are carried out as described by Toth and Marshall (Toth et al., Int. J. Pept. Protein Res., 1990, 36, 544-50).

Each structure is given as a SMILES string.

Take `CC(C)(C)NC(=O)[C@@H]1C[C@@H]2CCCC[C@@H]2CN1C[C@@H](O)[C@H](Cc1ccccc1)NC(=O)OC1CCCC12CCCO2` (single isomer, unassigned) [Compound 144]: half-maximal inhibition (IC50) was put at 40 nM.

`CC(C)(C)NC(=O)[C@@H]1C[C@@H]2CCCC[C@@H]2CN1C[C@@H](O)[C@H](Cc1ccccc1)NC(=O)OC1CCCC12CCCO2` (single isomer, unassigned) [Compound 145] displayed a 50% inhibitory concentration (IC50) of 96 nM. This IC50 lies about 2.4-fold higher than the previous one.

`CC(C)CN(C[C@@H](O)[C@H](Cc1ccccc1)NC(=O)OC1CCCC12CCCO2)S(=O)(=O)c1cccc(O)c1` (stereo partly drawn) [Compound 75] gave an IC50 of 6.7 nM and a Ki of 2.1 nM.

In turn, `CC(C)CN(C[C@@H](O)[C@H](Cc1ccccc1)NC(=O)OC1CC2CCO[C@@H]2C1)S(=O)(=O)c1cccc(O)c1` (stereo partly drawn) [Compound 79] displayed an IC50 of 5.5 nM and a Ki of 1.7 nM.

The compound `CC(C)CN(C[C@@H](O)[C@H](Cc1ccccc1)NC(=O)OC1CC2CCO[C@@H]2C1)S(=O)(=O)c1ccc(OC2CCCCO2)c(OC2CCCCO2)c1` (stereo partly drawn) [Compound 87] yielded a concentration for half-maximal inhibition (IC50) of 30 nM and an inhibition constant Ki of 9.3 nM.

`CC(C)CN(C[C@@H](O)[C@H](Cc1ccccc1)NC(=O)OC1CC2CCO[C@@H]2C1)S(=O)(=O)c1cc(OC2CCCCO2)cc(OC2CCCCO2)c1` (stereo partly drawn) [Compound 99] showed an IC50 of 3.9 nM and a Ki of 1.2 nM.

`CC(C)CN(C[C@@H](O)[C@H](Cc1ccccc1)NC(=O)OC1CC2CCO[C@@H]2C1)S(=O)(=O)c1cc(O)cc(O)c1` (stereo partly drawn) [Compound 100]: the half-maximal inhibitory concentration (IC50) was determined as 247 nM and the Ki was 77 nM.

For `CC(C)CN(C[C@@H](O)[C@H](Cc1ccccc1)NC(=O)OC1CC2CCO[C@@H]2C1)S(=O)(=O)c1cccc(CO)c1` (stereo partly drawn) [Compound 113], the IC50 was determined as 4 nM. That is a single-digit nanomolar value.

Compound `CC(C)CN(C[C@@H](O)[C@H](Cc1ccccc1)NC(=O)OC1CO[C@H]2OCCC12)S(=O)(=O)c1cccc(CO)c1` (stereo partly drawn) [Compound 114] had an IC50 of 1.1 nM.

In turn, `Cc1ccc(S(=O)(=O)OCc2ccc(S(=O)(=O)N(CC(C)C)C[C@@H](O)[C@H](Cc3ccccc3)NC(=O)OC3CO[C@H]4OCCC34)cc2)cc1` (stereo partly drawn) [Compound 117] had an IC50 of 2.4 nM and an inhibition constant Ki of 0.74 nM.

Compound `CC(C)CN(C[C@@H](O)[C@H](Cc1ccccc1)NC(=O)OC1CO[C@H]2OCCC12)S(=O)(=O)c1ccc(CN)cc1` (stereo partly drawn) [Compound 118] gave a half-inhibitory concentration (IC50) of 2.7 nM and a Ki of 0.9 nM.

Compound `CC(C)CN(C[C@@H](O)[C@H](Cc1ccccc1)NC(=O)OC1CO[C@H]2OCCC12)S(=O)(=O)c1cccc(/C=N/O)c1` (stereo partly drawn) [Compound 120] came in with a half-maximal inhibitory concentration (IC50) of 2.4 nM and a Ki of 0.74 nM.

For the compound `CC(C)CN(C[C@@H](O)[C@H](Cc1ccccc1)NC(=O)OC1CO[C@H]2OCCC12)S(=O)(=O)c1ccc(/C=C/CO)cc1` (stereo partly drawn) [Compound 121], inhibition was half-maximal at 3 nM (IC50).

Regarding `CC(C)CN(C[C@@H](O)[C@H](Cc1ccccc1)NC(=O)OC1CC2CCO[C@@H]2C1)S(=O)(=O)c1ccc(CN)cc1` (stereo partly drawn) [Compound 125], the 50% inhibitory concentration (IC50) was 3.5 nM and the affinity corresponds to a Ki of 1.1 nM.

The compound `CNCc1ccc(S(=O)(=O)N(CC(C)C)C[C@@H](O)[C@H](Cc2ccccc2)NC(=O)OC2CC3CCO[C@@H]3C2)cc1` (stereo partly drawn) [Compound 126] returned a half-maximal inhibitory concentration (IC50) of 15 nM.

For the compound `CC(C)CN(C[C@@H](O)[C@H](Cc1ccccc1)NC(=O)OC1CC2CCO[C@@H]2C1)S(=O)(=O)c1ccc(CN(C)C)cc1` (stereo partly drawn) [Compound 127], the IC50 is 50 nM.

`CC(C)CN(C[C@@H](O)[C@H](Cc1ccccc1)NC(=O)OC1CC2CCO[C@@H]2C1)S(=O)(=O)c1ccc(C=NO)cc1` (stereo partly drawn) [Compound 128] registered an IC50 of 1.7 nM and an inhibition constant Ki of 0.53 nM.

`CC(C)CN(C[C@@H](O)[C@H](Cc1ccccc1)NC(=O)OC1CC2CCO[C@@H]2C1)S(=O)(=O)c1cccc(C=NO)c1` (stereo partly drawn) [Compound 129] yielded a concentration for half-maximal inhibition (IC50) of 2.9 nM and an inhibition constant Ki of 0.9 nM.

For the compound `COCc1ccc(S(=O)(=O)N(CC(C)C)C[C@@H](O)[C@H](Cc2ccccc2)NC(=O)OC2CC3CCO[C@@H]3C2)cc1` (stereo partly drawn) [Compound 130], half-maximal inhibition (IC50) was put at 0.8 nM.

What is called IC50 is the concentration at which inhibition is half-maximal. The term Ki denotes a dissociation constant, usually derived from enzyme kinetics or from competition with a known ligand.

The values are drawn from US20070082883A1, “HIV protease inhibitors” (THE BOARD OF TRUSTEES OF THE UNIVERSITY OF ILLINOIS, priority 2002, published 2007).
